# Measured values: US4724233A, “Therapeutical application of phosphonylmethoxyalkyl adenines” (Stichting Rega VZW, priority 1985, dated 1988)
# Entries after “also recorded” stand apart in the source; their conditions may differ. Like-named read-outs stand apart in the source and are kept apart here.
# Experiments:
# Moloney sarcoma = assay: inhibition of Moloney sarcoma virus; assay type: cell-based, Moloney mouse sarcoma virus; settings: Mus musculus; Table 3; MO cells; read-out: MIC50
# Herpes simplex I (KOS) = assay: inhibition of cytopathic effect of herpes simplex 1 (KOS); assay type: cell-based, herpes simplex virus type 1; settings: Human alphaherpesvirus 1; Table 3; PRK cells; read-out: MIC50
# in vitro = settings: rabbit, prk cells
# Measles = assay: inhibition of cytopathic effect of measles; assay type: cell-based; settings: Measles morbillivirus; Table 3; Vero Flow cells; read-out: MIC50
# Vesicular stomatitis = assay: microbe, parasite or virus in culture; assay type: cell-based; settings: read-out: MIC50
# Vaccinia = assay: microbe, parasite or virus in culture; assay type: cell-based; settings: Orthopoxvirus vaccinia, PRK, read-out: MIC50
# VZV (strain) YS = assay: microbe, parasite or virus in culture; assay type: cell-based, varicella-zoster virus; settings: Human alphaherpesvirus 3, Table 5, HEL cells, read-out: MIC50
# Parainfluenza 3 = assay: inhibition of cytopathic effect of parainfluenza 3; assay type: cell-based; settings: Table 3; Vero B cells; read-out: MIC50
# HSV-2 (strain) Lyons = assay: inhibition of cytopathic effect of HSV-2 strain Lyons; assay type: cell-based, herpes simplex virus type 2; settings: Human alphaherpesvirus 2; Table 4; HSV-2 Lyons, PRK cells; read-out: MIC50
# [1] = system: HSV-1 (strain) TK^- B2006; assay: inhibition of cytopathic effect of HSV-1 TK- strain B2006; assay type: cell-based, herpes simplex virus type 1; settings: Human alphaherpesvirus 1, PRK, read-out: MIC50
# Polio 1 = assay: microbe, parasite or virus in culture; assay type: cell-based; settings: HeLa, read-out: MIC50
# [2] = system: HSV-1 (strain) TK^- C1101; assay: inhibition of cytopathic effect of HSV-1 TK- strain C1101; assay type: cell-based, herpes simplex virus type 1; settings: Human alphaherpesvirus 1, PRK, read-out: MIC50
# VZV (strain) TK^- 07-1 = assay: microbe, parasite or virus in culture; assay type: cell-based, varicella-zoster virus; settings: Human alphaherpesvirus 3, HEL, read-out: MIC50
# CMV (strain) AD 169 = assay: inhibition of CMV strain AD 169 in HEL cells; assay type: cell-based, cytomegalovirus; settings: Human betaherpesvirus 5; Table 5; CMV AD 169, HEL cells; read-out: MIC50
# [3] = antimetabolic activity: incorporation of 3H-labeled precursors into primary rabbit kidney cells; settings: rabbit, prk cells
# [4] = system: herpes simplex virus type 1 (HSV-1) (strain KOS); assay type: cell-based; settings: PRK cells
# Reovirus = assay: inhibition of cytopathic effect of reovirus; assay type: cell-based; settings: Reovirus sp.; Table 3; Vero B cells; read-out: MIC50
# Herpes simplex 2 (G) = assay: inhibition of cytopathic effect of herpes simplex 2 (G); assay type: cell-based, herpes simplex virus type 2; settings: Human alphaherpesvirus 2, PRK, PRK cells, read-out: MIC50
# CMV (strain) Davis = assay: inhibition of CMV strain Davis in HEL cells; assay type: cell-based, cytomegalovirus; settings: Human betaherpesvirus 5, Table 5, read-out: MIC50
# VZV (strain) TK^- YSR = assay: microbe, parasite or virus in culture; assay type: cell-based, varicella-zoster virus; settings: Human alphaherpesvirus 3, HEL, read-out: MIC50
# HSV-1 (strain) F = assay: inhibition of cytopathic effect of HSV-1 strain F; assay type: cell-based, herpes simplex virus type 1; settings: Human alphaherpesvirus 1; Table 4; HSV-1 F, PRK cells; read-out: MIC50
# VZV (strain) OKa = assay: microbe, parasite or virus in culture; assay type: cell-based, varicella-zoster virus; settings: Human alphaherpesvirus 3, HEL, read-out: MIC50
# vaccinia virus (VV) = assay type: cell-based; settings: 48 h, PRK cells, average of two determinations
# Sindbis = assay: inhibition of cytopathic effect of Sindbis; assay type: cell-based; settings: Table 3; Vero B cells; read-out: MIC50
# Coxsackie B4 = assay: inhibition of cytopathic effect of Coxsackie B4; assay type: cell-based; settings: Enterovirus B, B4; Table 3; Vero B, HeLa cells; read-out: MIC50
# HSV-2 (strain) 196 = assay: inhibition of cytopathic effect of HSV-2 strain 196; assay type: cell-based, herpes simplex virus type 2; settings: Human alphaherpesvirus 2; Table 4; HSV-2 196, PRK cells; read-out: MIC50
# DNA-viruses = assay type: cell-based
# HSV-1 (strain) McIntyre = assay: inhibition of cytopathic effect of HSV-1 strain McIntyre; assay type: cell-based, herpes simplex virus type 1; settings: Human alphaherpesvirus 1; Table 4; HSV-1 McIntyre, PRK cells; read-out: MIC50
smiles,measurement,setting,value
"Nc1ncnc2c1ncn2C[C@@H](CO)OCP(=O)(O)O [No. 4, (S)-9-(3-hydroxy-2-phosphonylmethoxypropyl)adenine]",EC50,Moloney sarcoma,1 µg/mL
same,EC50,Herpes simplex I (KOS),1 µg/mL
same,MCC at 72 h,in vitro,≥ 200 µg/mL
same,EC50,Measles,> 40 µg/mL
same,EC50,Vesicular stomatitis,> 400 µg/mL
same,EC50,Vaccinia,0.3 to 1.5 µg/mL
same,EC50,VZV (strain) YS,0.004 µg/mL
same,EC50,Parainfluenza 3,> 200 µg/mL
same,EC50,HSV-2 (strain) Lyons,1 µg/mL
same,EC50,[1],1 µg/mL
same,EC50,Polio 1,> 400 µg/mL
same,EC50,[2],1 µg/mL
same,EC50,VZV (strain) TK^- 07-1,0.004 µg/mL
same,EC50,CMV (strain) AD 169,0.3 µg/mL
same,IC50,"[3]; ID50 Leu incorporation, (3H-4,5)Leu",> 400 µg/mL
same,IC50,"[3]; ID50 Urd incorporation, (3H-5)Urd",> 400 µg/mL
same,IC50,"[3]; ID50 dThd incorporation, (3H-methyl) dThd",297 µg/mL
same,IC50,"[3]; ID50 dUrd incorporation, (3H-1',2')dUrd",74 µg/mL
same,Titer of HSV-1,"[4]; 24 h, 100 μg/ml",< 1.3 log10 PFU/ml
same,Titer of HSV-1,"[4]; 48 h, 10 μg/ml (value in parentheses)",4.3 log10 PFU/ml
same,Titer of HSV-1,"[4]; 48 h, 100 μg/ml",< 1.3 log10 PFU/ml
same,EC50,Reovirus,> 40 µg/mL
same,EC50,Herpes simplex 2 (G); Table 3,1 to 3 µg/mL
same,EC50,"Herpes simplex 2 (G); Table 4, HSV-2 G",1 to 3 µg/mL
same,EC50,CMV (strain) Davis,0.3 µg/mL
same,EC50,VZV (strain) TK^- YSR,0.004 µg/mL
same,EC50,HSV-1 (strain) F,1 to 3 µg/mL
same,EC50,VZV (strain) OKa,0.004 µg/mL
same,Titer of VV,vaccinia virus (VV); 10 μg/ml (value in parentheses),< 1.3 log10 PFU/ml
same,Titer of VV,vaccinia virus (VV); 100 μg/ml,< 1.3 log10 PFU/ml
same,EC50,Sindbis,> 400 µg/mL
same,EC50,Coxsackie B4,> 400 µg/mL
same,EC50,HSV-2 (strain) 196,1 to 3 µg/mL
same,antiviral activity (in words),DNA-viruses,the most effective one; also recorded: best antiviral activity
same,EC50,HSV-1 (strain) McIntyre,1 to 3 µg/mL
